Measurements: PMC5602538, “Assessment of the Drug Interaction Potential of Unconjugated and GalNAc3-Conjugated 2′-MOE-ASOs” (Molecular Therapy. Nucleic Acids, 2017)

What was measured:
BCRP = conditions: Ko143 1 μM, 2 μM prazosin
CYP2C8 = biological target: T1, CYP2C8 (Homo sapiens, UniProt P10632); conditions: hepatocytes
T1 sequence (P10632 1-490): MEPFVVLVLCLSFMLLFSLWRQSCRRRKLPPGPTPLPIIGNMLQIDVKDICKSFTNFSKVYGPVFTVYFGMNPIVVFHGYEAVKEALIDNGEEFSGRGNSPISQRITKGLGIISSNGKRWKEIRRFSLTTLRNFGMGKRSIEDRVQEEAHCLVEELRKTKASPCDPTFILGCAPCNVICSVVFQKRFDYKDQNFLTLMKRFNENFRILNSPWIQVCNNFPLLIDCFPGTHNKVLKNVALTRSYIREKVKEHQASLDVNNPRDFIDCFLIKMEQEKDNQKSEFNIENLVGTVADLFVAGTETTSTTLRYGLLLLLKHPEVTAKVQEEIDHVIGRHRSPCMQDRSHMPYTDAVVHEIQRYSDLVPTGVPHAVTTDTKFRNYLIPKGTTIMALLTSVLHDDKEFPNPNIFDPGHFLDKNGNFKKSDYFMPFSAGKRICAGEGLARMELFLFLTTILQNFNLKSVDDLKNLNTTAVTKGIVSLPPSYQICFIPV
Protocol: Preincubations were performed in 50 μL of Williams’ Medium E with 2 mM salicylamide. The salicylamide was included to reduce possible phase II conjugation to the precursor phase I metabolites. […] Human hepatocytes (pooled from 5 donors) were thawed and prepared according to the vendor’s protocol. […] Incubations were carried out at 37°C with 5% CO2. The incubation time was 45 min for phenacetin, diclofenac, dextromethorphan, midazolam, bupropion, chlorzoxazone, and testosterone and 90 min for paclitaxel and (S)-mephenytoin. The reactions were stopped by adding 200 μL of ice-cold acetonitrile (can) with tolbutamide (100 ng/mL) as the internal standard to 100 μL of hepatocyte suspension (1:2, v/v). The 96-well plate was then vortexed at 1,700 rpm for 3 min and centrifuged at 3,500 rpm for 10 min at 20°C. The supernatants were analyzed using liquid chromatography-tandem MS (LC-MS/MS).

CYP1A2 = CYP1A2 enzyme activity induction in plated human hepatocytes; conditions: human, probe phenacetin, 100 μM
Protocol: (§1) Upon receipt, sandwich-cultured cryopreserved human hepatocytes (with Matrigel) plated on collagen-coated 24-well plates were inspected under a microscope for general morphology and viability. Fresh culture medium (OptiCulture Hepatocyte Media) was added to each plate that passed the visual inspection. The plates were then placed in an incubator set to 37°C with 5% carbon dioxide (CO2) for overnight acclimation. […] During this time, cells in parallel wells were also treated with 50.0 μM omeprazole (inducer of CYP1A2), 1,000 μM phenobarbital (inducer of CYP2B6), or 10.0 μM rifampicin (inducer of CYP3A4) in triplicate, respectively.
(§2) The plates were then incubated at 37°C with 5% CO2 for 60 min. […] Aliquots of the supernatants were analyzed by LC-MS/MS for the formation of acetaminophen, hydroxyl-bupropion, or hydroxyl-midazolam as markers for enzyme activity of CYP1A2, CYP2B6, and CYP3A4, respectively.
(§3) The activity of each CYP enzyme was measured by comparing the peak area ratio of the corresponding product to the peak area ratio of the internal standard. The fold induction was calculated by dividing the peak area ratio of each individual well from the treatment group by the mean of the peak area ratios obtained from the vehicle control wells. […] The ΔCƬ was calculated as follows: ΔCƬ = CƬ (CYP) − CƬ (GAPDH). […] The ΔΔCƬ was calculated as follows: ΔΔCƬ = Δ CƬ (Treatment) − Δ CƬ (Vehicle). […]

CYP1A2 mRNA = test: in vitro; conditions: human
Protocol: as §1
(§4) After collection of the supernatant for catalytic analysis, the remaining cells were washed and lysed with QIAGEN Buffer RLT from the QIAGEN RNeasy Kit. […]
(§5) The activity of each CYP enzyme was measured by comparing the peak area ratio of the corresponding product to the peak area ratio of the internal standard. The fold induction was calculated by dividing the peak area ratio of each individual well from the treatment group by the mean of the peak area ratios obtained from the vehicle control wells. […] The ΔCƬ was calculated as follows: ΔCƬ = CƬ (CYP) − CƬ (GAPDH). […] The ΔΔCƬ was calculated as follows: ΔΔCƬ = Δ CƬ (Treatment) − Δ CƬ (Vehicle). The fold induction of the target CYP was calculated using the following equation: Fold=2^-ΔΔCT.

CYP2B6 = CYP2B6 enzyme activity induction in plated human hepatocytes; conditions: human
Protocol: as §1, §2, §3

CYP2B6 mRNA = CYP2B6 mRNA induction in plated human hepatocytes; conditions: human
Protocol: as §1, §4, §5

OAT3 = tested on: T2, OAT3; test: OAT3 inhibition study in MDCK cells; format: in vitro ADME; conditions: MDCK-II cell monolayer expressing OAT3, probe [3H]-p-aminohippurate; probenecid 100 μM, 10 μM p-aminohippurate; read-out: % inhibition of OAT3-mediated transport of p-aminohippurate, reference inhibitor
T2 construct: expressed in transfected cells; host or cells: MDCK-II
Protocol: A 96-well cell culture plate containing a monolayer of MDCK-II cells grown on a permeable support and a corresponding receiver tray was used. The basolateral compartment of the culture plate and wells were washed with warm HBSS three times, with wells of the culture plate serving as the apical compartment. The wash was aspirated by adding 150 μL of 37°C HBSS to both compartments. […] The pre-incubation buffer from both compartments was aspirated and 150 μL of the following was added to the basal compartment. […] OATP1B1, 2 μM [^3H]-estradiol-17 β-D-glucuronide; and OATP1B3, 2 μM [^3H]-cholecystokinin octapeptide (CCK-8). […] Plates were incubated at 37°C with orbital shaking at 60 rpm for 5 min. Both sides of the permeable support were washed four times with ice-cold PBS and 60 μL of cell extraction solution was added to each well. Plates were agitated for 15 min at 120 rpm, after which a 30-μL sample of the extract was collected. […] Test article concentrations, including control samples, were evaluated by an LC-MS method. Signal to noise for probe substrates was calculated by dividing the uptake of the probe substrate in transporter-expressing cells by the uptake of probe substrate in control cells not expressing the transporter of interest.

OCT1 = tested on: T3, OCT1; test: OCT1 inhibition study in MDCK cells; format: in vitro ADME; conditions: MDCK-II cell monolayer expressing OCT1, probe [3H]-MPP+, 2 μM; read-out: % inhibition of OCT1-mediated transport of MPP+, reference inhibitor
T3 construct: expressed in transfected cells; host or cells: MDCK-II
Protocol: (§6) A 96-well cell culture plate containing a monolayer of MDCK-II cells grown on a permeable support and a corresponding receiver tray was used. The basolateral compartment of the culture plate and wells were washed with warm HBSS three times, with wells of the culture plate serving as the apical compartment. The wash was aspirated by adding 150 μL of 37°C HBSS to both compartments. Plates were incubated at 37°C with orbital shaking at 60 rpm for 15 min for OAT1, OAT3, OCT1, OCT2, OATP1B1, and OATP1B3 (±5 min). The pre-incubation buffer from both compartments was aspirated and 150 μL of the following was added to the basal compartment. […] Test article concentrations, including control samples, were evaluated by an LC-MS method.
(§7) Signal to noise for probe substrates was calculated by dividing the uptake of the probe substrate in transporter-expressing cells by the uptake of probe substrate in control cells not expressing the transporter of interest. Percent inhibition was calculated by dividing the net-transporter-mediated substrate uptake in the presence of the test article or the reference inhibitor by the net-transporter-mediated substrate uptake in the absence of the inhibitor according to the equation: %inhibition=100−(100×(transporter-mediateduptake)withinhibitor/(transporter-mediateduptake)withoutinhibitor).

OCT2 = tested on: T4, OCT2; test: OCT2 inhibition study in MDCK cells; format: in vitro ADME; conditions: MDCK-II cell monolayer expressing OCT2, probe [14C]-metformin, 10 μM; read-out: % inhibition of OCT2-mediated transport of metformin, reference inhibitor
T4 construct: expressed in transfected cells; host or cells: MDCK-II
Protocol: as §6, §7

OATP1B1 = tested on: T5, OATP1B1; test: OATP1B1 inhibition study in MDCK cells; format: in vitro ADME; conditions: MDCK-II cell monolayer expressing OATP1B1, probe [3H]-estradiol-17β-D-glucuronide; rifampicin 100 μM, 2 μM substrate; read-out: % inhibition of OATP1B1-mediated transport of estradiol-17β-D-glucuronide, reference inhibitor
T5 construct: expressed in transfected cells; host or cells: MDCK-II
Protocol: as §6, §7

OATP1B3 = tested on: T6, OATP1B3; test: OATP1B3 inhibition study in MDCK cells; format: in vitro ADME; conditions: MDCK-II cell monolayer expressing OATP1B3, probe [3H]-cholecystokinin octapeptide (CCK-8); rifampicin 100 μM, 2 μM CCK-8; read-out: % inhibition of OATP1B3-mediated transport of CCK-8, reference inhibitor
T6 construct: expressed in transfected cells; host or cells: MDCK-II
Protocol: A 96-well cell culture plate containing a monolayer of MDCK-II cells grown on a permeable support and a corresponding receiver tray was used. The basolateral compartment of the culture plate and wells were washed with warm HBSS three times, with wells of the culture plate serving as the apical compartment. The wash was aspirated by adding 150 μL of 37°C HBSS to both compartments. Plates were incubated at 37°C with orbital shaking at 60 rpm for 15 min for OAT1, OAT3, OCT1, OCT2, OATP1B1, and OATP1B3 (±5 min). The pre-incubation buffer from both compartments was aspirated and 150 μL of the following was added to the basal compartment. […] Samples containing probe substrate were added to 200 μL of scintillation fluid and counted on a 1450 Microbeta (PerkinElmer), whereas samples containing the test article were kept frozen. Test article concentrations, including control samples, were evaluated by an LC-MS method.
Signal to noise for probe substrates was calculated by dividing the uptake of the probe substrate in transporter-expressing cells by the uptake of probe substrate in control cells not expressing the transporter of interest. […]

## COc1ccc2c3c([nH]c2c1)[C@H](CC(C)C)N1C(=O)[C@H](CCC(=O)OC(C)(C)C)NC(=O)[C@@H]1C3 [Ko143]
BCRP
  % inhibition of BCRP-mediated transport of prazosin, reference inhibitor: 90.4 ± 1.89%

## Cc1ccc(C)c(OCCCC(C)(C)C(=O)O[C@@H]2O[C@H](C(=O)O)[C@@H](O)[C@H](O)[C@H]2O)c1 [gemfibrozil glucuronide, reference compound]
CYP2C8
  IC50: 960 nM

## COc1ccc2[nH]c([S+]([O-])Cc3ncc(C)c(OC)c3C)nc2c1 (centres unmarked) [omeprazole, reference compound]
CYP1A2
  fold induction at 72 h, 50 μM: 50.6 ± 3.78
CYP1A2 mRNA
  fold induction at 72 h, 50 μM: 45.7 ± 4.51

## CCC1(c2ccccc2)C(=O)NC(=O)NC1=O [phenobarbital, reference compound]
CYP2B6
  fold induction at 72 h, 1000 μM: 5.03 ± 1.06
CYP2B6 mRNA
  fold induction at 72 h, 1000 μM: 9.83 ± 0.992

## CCCN(CCC)S(=O)(=O)c1ccc(C(=O)O)cc1 [probenecid, reference compound]
OAT3
  inhibition at 5 min, 100 μM: ≤ 98.3%

## C=C[C@H]1C[N@@]2CC[C@H]1C[C@@H]2[C@@H](O)c1ccnc2ccc(OC)cc12 [quinidine]
OCT1
  inhibition at 5 min, 1000 μM: 91.2 ± 1.57%
OCT2
  inhibition at 5 min, 1000 μM: 98.5 ± 1.34%

## CO[C@H]1/C=C/O[C@@]2(C)Oc3c(C)c(O)c4c(O)c(c(/C=N/N5CCN(C)CC5)c(O)c4c3C2=O)NC(=O)/C(C)=C\C=C\[C@H](C)[C@H](O)[C@@H](C)[C@@H](O)[C@@H](C)[C@H](OC(C)=O)[C@@H]1C [rifampicin, reference compound]
OATP1B1
  inhibition at 5 min, 100 μM: 98.8 ± 1.09%
OATP1B3
  inhibition at 5 min, 100 μM: 99 ± 0.955%
